{"source": "paper PMC7586935", "about": "(Journal of Clinical Pharmacology, 2020)", "key": {"[1]": {"test": "Plasma pharmacokinetics after single oral dose", "type": "in vivo", "settings": "human, oral, 400 mg"}, "healthy volunteers [2]": {"test_system": "healthy volunteers", "test": "ECG outlier analyses", "type": "in vivo, human", "settings": "moxifloxacin 400 mg, n = 18"}, "healthy volunteers [3]": {"test_system": "healthy volunteers", "test": "ECG morphological analyses", "type": "in vivo, human", "settings": "moxifloxacin 400 mg, n = 18"}, "healthy volunteers [4]": {"test_system": "healthy volunteers", "test": "Safety assessment: treatment-emergent adverse events", "type": "in vivo, human", "settings": "moxifloxacin 400 mg, one subject"}, "[5]": {"test_system": "QT/QTc interval of healthy volunteers", "test": "Concentration-QTc"}}, "data": [{"smiles": "COc1c(N2C[C@@H]3CCCN[C@@H]3C2)c(F)cc2c(=O)c(C(=O)O)cn(C3CC3)c12", "note": "[Moxifloxacin]", "values": [{"measurement": "AUC", "setting": "[1]", "result": "24700 ± 5240", "unit": "ng·h/mL"}, {"measurement": "Cmax", "setting": "[1]", "result": "2760 ± 559", "unit": "ng/mL"}, {"measurement": "Tmax", "setting": "[1]", "result": 1, "unit": "h"}, {"measurement": "Heart rate: Bradycardic outliers", "setting": "healthy volunteers [2]", "result": "0 n (%)"}, {"measurement": "Heart rate: Tachycardic outliers", "setting": "healthy volunteers [2]", "result": "1 (6) n (%)"}, {"measurement": "PR interval: Outliers", "setting": "healthy volunteers [2]", "result": "0 n (%)"}, {"measurement": "QRS interval: Outliers", "setting": "healthy volunteers [2]", "result": "0 n (%)"}, {"measurement": "QTcF >30‐60 ms inc change from baseline", "setting": "healthy volunteers [2]", "result": "2 (11) n (%)"}, {"measurement": "QTcF >60 ms inc change from baseline", "setting": "healthy volunteers [2]", "result": "0 n (%)"}, {"measurement": "QTcF New >480 ms", "setting": "healthy volunteers [2]", "result": "0 n (%)"}, {"measurement": "QTcF New >500 ms", "setting": "healthy volunteers [2]", "result": "0 n (%)"}, {"measurement": "New ST‐segment depression changes", "setting": "healthy volunteers [3]", "result": "1 (6) n (%)"}, {"measurement": "New ST‐segment elevation changes", "setting": "healthy volunteers [3]", "result": "0 n (%)"}, {"measurement": "New atrial fibrillation", "setting": "healthy volunteers [3]", "result": "0 n (%)"}, {"measurement": "New atrial flutter", "setting": "healthy volunteers [3]", "result": "0 n (%)"}, {"measurement": "New second‐degree heart block", "setting": "healthy volunteers [3]", "result": "0 n (%)"}, {"measurement": "New third‐degree heart block", "setting": "healthy volunteers [3]", "result": "0 n (%)"}, {"measurement": "Somnolence, frequency of subjects", "setting": "healthy volunteers [4]", "result": 5.6, "unit": "%"}, {"measurement": "Predicted Mean Effect at Mean Cmax (placebo-corrected change from baseline QTcF, ΔΔQTcF)", "setting": "[5]; moxifloxacin 400 mg, mean Cmax 2758.3 ng/mL", "result": 15.2, "unit": "ms"}, {"measurement": "Slope of placebo-adjusted change from baseline QTcF vs plasma concentration", "setting": "[5]; moxifloxacin plasma concentration, assay sensitivity", "result": "4.24 ms/[μg/mL]"}]}]}
